Measured values published in ChEMBL document CHEMBL4613209, “Quinolone hybrids and their anti-cancer activities: An overview” (Eur J Med Chem, 2019).
pIC50: −log10 of the molar value.

Key:
Type in all cases: functional, cell-based
[1] = system: SK-MEL3; test: Cytotoxicity against human SK-MEL-3 cells assessed as reduction in cell viability by MTT assay
[2] = system: EJ; test: Cytotoxicity against human EJ cells assessed as reduction in cell viability by MTT assay
[3] = system: MCF7; test: Cytotoxicity against human MCF7 cells assessed as reduction in cell viability by MTT assay
[4] = system: A-431; test: Cytotoxicity against human A431 cells assessed as reduction in cell viability by MTT assay
[5] = system: SW480; test: Cytotoxicity against human SW480 cells assessed as reduction in cell viability by MTT assay
[6] = system: L1210; test: Cytotoxicity against mouse L1210 cells assessed as reduction in cell viability
[7] = system: HL-60; test: Cytotoxicity against human HL60 cells assessed as reduction in cell viability
[8] = system: CHO; test: Cytotoxicity against CHO cells assessed as reduction in cell viability; conditions: Cricetulus griseus

O=C(O)c1cn(C2CC2)c2cc(N3CCN(C/C(=N/OCc4ccccc4)c4ccc(Cl)s4)CC3)c(F)cc2c1=O
pIC50 [1]: ≥ 4.70
pIC50 [2]: ≥ 4.70
pIC50 [3]: ≥ 4.70
pIC50 [4]: ≥ 4.70
pIC50 [5]: ≥ 4.70

O=C(CN1CCN(c2cc3c(cc2F)c(=O)c(C(=O)O)cn3C2CC2)CC1)c1ccc(Cl)s1
pIC50 [1]: ≤ 4.00
pIC50 [2]: ≤ 4.00
pIC50 [3]: ≤ 4.00
pIC50 [4]: ≤ 4.00
pIC50 [5]: ≤ 4.00

CO/N=C(/CN1CCN(c2cc3c(cc2F)c(=O)c(C(=O)O)cn3C2CC2)CC1)c1ccc(Cl)s1
pIC50 [1]: ≥ 4.70
pIC50 [2]: ≥ 4.70
pIC50 [3]: ≥ 4.70
pIC50 [4]: ≥ 4.70
pIC50 [5]: ≥ 4.70

CCn1cc(C(=O)O)c(=O)c2cc(F)c(N3CCN(C/C(=N/OC)c4ccc(Cl)s4)CC3)nc21
pIC50 [1]: ≥ 4.70
pIC50 [2]: ≥ 4.70
pIC50 [3]: ≥ 4.70
pIC50 [4]: ≥ 4.70
pIC50 [5]: ≥ 4.70

CCn1cc(C(=O)O)c(=O)c2cc(F)c(N3CCN(CC(=O)c4cccs4)CC3)nc21
pIC50 [1]: 3.88 to 5.70
pIC50 [2]: 3.88 to 5.70
pIC50 [3]: 3.88 to 5.70
pIC50 [4]: 3.88 to 5.70
pIC50 [5]: 3.88 to 5.70

CCn1cc(C(=O)O)c(=O)c2cc(F)c(N3CCN(C/C(=N/OCc4ccccc4)c4cccs4)CC3)nc21
pIC50 [1]: 3.88 to 5.70
pIC50 [2]: 3.88 to 5.70
pIC50 [3]: 3.88 to 5.70
pIC50 [4]: 3.88 to 5.70
pIC50 [5]: 3.88 to 5.70

CCn1cc(C(=O)O)c(=O)c2cc(F)c(N3CCNCC3)nc21 [ENOXACIN]
pIC50 [1]: 3.62 to 3.86
pIC50 [2]: 3.62 to 3.86
pIC50 [3]: 3.62 to 3.86
pIC50 [4]: 3.62 to 3.86
pIC50 [5]: 3.62 to 3.86

CCn1cc(-c2nnc(-c3cn(C4CC4)c4cc(N5CCNCC5)c(F)cc4c3=O)o2)c(=O)c2cc(F)c(N3CCNCC3)cc21
pIC50 [6]: 4.84 to 6.59
pIC50 [7]: 4.84 to 6.59
pIC50 [8]: 4.84 to 6.59

CCn1cc(C(=O)O)c(=O)c2cc(F)c(N3CCN(C/C(=N/O)c4cccs4)CC3)nc21
pIC50 [1]: 3.88 to 5.70
pIC50 [2]: 3.88 to 5.70
pIC50 [3]: 3.88 to 5.70
pIC50 [4]: 3.88 to 5.70
pIC50 [5]: 3.88 to 5.70

CCn1cc(C(=O)O)c(=O)c2cc(F)c(N3CCN(C/C(=N/O)c4ccc(Cl)s4)CC3)nc21
pIC50 [1]: ≥ 4.70
pIC50 [2]: ≥ 4.70
pIC50 [3]: ≥ 4.70
pIC50 [4]: ≥ 4.70
pIC50 [5]: ≥ 4.70

CC1COc2c(N3CCN(C)CC3)c(F)cc3c(=O)c(-c4nn5c(-c6cn(C7CC7)c7cc(N8CCN(C)CC8)c(F)cc7c6=O)nnc5s4)cn1c23 (centres undefined)
pIC50 [6]: 4.63 to 4.85
pIC50 [7]: 4.63 to 4.85
pIC50 [8]: 4.63 to 4.85

CCN1CCN(c2cc3c(cc2F)c(=O)c(-c2nnc4sc(-c5cn(CC)c6cc(N7CCN(C)CC7)c(F)cc6c5=O)nn24)cn3C2CC2)CC1
pIC50 [6]: 5.28 to 6.92
pIC50 [7]: 5.28 to 6.92
pIC50 [8]: 5.28 to 6.92

Cc1ccc(/C=N/NC(=O)c2cn(C3CC3)c3cc(N/N=C/c4ccc(C)cc4)c(F)cc3c2=O)cc1
pIC50 [6]: 4.63 to 5.82
pIC50 [7]: 4.63 to 5.82
pIC50 [8]: 4.63 to 5.82

CCN1CCN(c2cc3c(cc2F)c(=O)c(-c2nnc4sc(-c5cn(C6CC6)c6cc(N7CCNCC7)c(F)cc6c5=O)nn24)cn3C2CC2)CC1
pIC50 [6]: 5.28 to 6.92
pIC50 [7]: 5.28 to 6.92
pIC50 [8]: 5.28 to 6.92

CCN1CCN(c2cc3c(cc2F)c(=O)c(-c2nn4c(-c5cn(C6CC6)c6cc(N7CCN(CC)CC7)c(F)cc6c5=O)nnc4s2)cn3C2CC2)CC1
pIC50 [6]: 5.28 to 6.92
pIC50 [7]: 5.28 to 6.92
pIC50 [8]: 5.28 to 6.92

CN1CCN(c2cc3c(nc2F)c(=O)c(-c2nnc4sc(-c5cn(C6CC6)c6cc(N7CCNCC7)c(F)cc6c5=O)nn24)cn3C2CC2)CC1
pIC50 [6]: 5.28 to 6.92
pIC50 [7]: 5.28 to 6.92
pIC50 [8]: 5.28 to 6.92

O=C(N/N=C/c1ccc2c(c1)OCO2)c1cn(C2CC2)c2cc(N/N=C/c3ccc4c(c3)OCO4)c(F)cc2c1=O
pIC50 [6]: 4.63 to 5.82
pIC50 [7]: 4.63 to 5.82
pIC50 [8]: 4.63 to 5.82

CCn1cc(C(=O)O)c(=O)c2cc(F)c(N3CCN(C/C(=N/OC)c4cccs4)CC3)cc21
pIC50 [1]: 3.88 to 5.70
pIC50 [2]: 3.88 to 5.70
pIC50 [3]: 3.88 to 5.70
pIC50 [4]: 3.88 to 5.70
pIC50 [5]: 3.88 to 5.70

CCn1cc(C(=O)O)c(=O)c2cc(F)c(N3CCN(C/C(=N/OCc4ccccc4)c4ccc(Cl)s4)CC3)nc21
pIC50 [1]: ≥ 4.70
pIC50 [2]: ≥ 4.70
pIC50 [3]: ≥ 4.70
pIC50 [4]: ≥ 4.70
pIC50 [5]: ≥ 4.70

CCn1cc(C(=O)O)c(=O)c2cc(F)c(N3CCN(C/C(=N/OCc4ccccc4)c4cccs4)CC3)cc21
pIC50 [1]: 3.88 to 5.70
pIC50 [2]: 3.88 to 5.70
pIC50 [3]: 3.88 to 5.70
pIC50 [4]: 3.88 to 5.70
pIC50 [5]: 3.88 to 5.70
